Data published in ChEMBL document CHEMBL5532661, “Discovery of a Novel Glucagon-like Peptide-1 (GLP-1) Analogue from Bullfrog and Investigation of Its Potential for Designing GLP-1-Based Multiagonists” (J Med Chem, 2024).
Numbered stars: 1 amine (or outer) side, 2 acyl side, 3 side chain; on linkers, the order of the positions; unused ones are H or OH. Square brackets hold non-standard residues; d marks the D form. Side chains are listed from the residue outwards. Peptide text beside a SMILES is read from it. * marks the point of attachment. C20 diacid = O=C(O)CCCCCCCCCCCCCCCCCCC(=O)*; C18 diacid = O=C(O)CCCCCCCCCCCCCCCCC(=O)*; γGlu = O=C(O)[C@H](CCC(=O)[*:2])N[*:1]; AEEA = NCCOCCOCC(=O)O; Aib = CC(C)(N)C(=O)O

Columns and labels:
Type in all cases: functional, cell-based
[1] = target: T1, Glucagon-like peptide 1 receptor (Homo sapiens, UniProt P43220); assay: Agonist activity at human GLP-1 receptor expressed in HEK293 cells assessed as cAMP level measured after 60 mins by HTRF based assay
[2] = target: T1, Glucagon-like peptide 1 receptor; assay: Agonist activity at human GLP-1 receptor expressed in HEK293 cells assessed as cAMP level by measuring relative percent (GLP-1 EC50/compound EC50) measured after 60 mins by HTRF based assay relative to GLP-1
Glucagon receptor [3] = target: T2, Glucagon receptor (Homo sapiens, UniProt P47871); assay: Agonist activity at human GCGR expressed in HEK293 cells assessed as cAMP level measured after 60 mins by HTRF based assay
Glucagon receptor [4] = target: T2, Glucagon receptor; assay: Agonist activity at human GCGR expressed in HEK293 cells assessed as cAMP level by measuring relative percent (glucagon EC50/compound EC50) measured after 60 mins by HTRF based assay relative to glucagon
[5] = target: T3, Gastric inhibitory polypeptide receptor (Homo sapiens, UniProt P48546); assay: Agonist activity at human GIPR receptor expressed in HEK293 cells assessed as cAMP level measured after 60 mins by HTRF based assay
T3 sequence (P48546 whole entry): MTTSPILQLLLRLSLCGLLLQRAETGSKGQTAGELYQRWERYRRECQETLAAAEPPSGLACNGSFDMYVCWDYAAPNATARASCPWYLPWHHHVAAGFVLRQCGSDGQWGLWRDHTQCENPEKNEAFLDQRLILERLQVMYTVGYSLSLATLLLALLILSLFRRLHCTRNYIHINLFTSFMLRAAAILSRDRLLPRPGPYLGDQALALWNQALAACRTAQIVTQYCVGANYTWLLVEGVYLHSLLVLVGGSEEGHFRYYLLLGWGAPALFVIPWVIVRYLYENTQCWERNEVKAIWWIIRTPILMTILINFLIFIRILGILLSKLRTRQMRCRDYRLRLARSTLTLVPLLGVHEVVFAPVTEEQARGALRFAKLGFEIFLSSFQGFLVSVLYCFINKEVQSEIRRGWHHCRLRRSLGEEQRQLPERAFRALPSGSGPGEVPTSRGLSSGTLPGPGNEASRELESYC

[6] = target: T4, Gastric inhibitory polypeptide receptor (Homo sapiens) (UniProt P48546); assay: Agonist activity at human GIPR receptor expressed in HEK293 cells assessed as cAMP level by measuring relative percent (GIP EC50/compound EC50) measured after 60 mins by HTRF based assay relative to GIP
T4 sequence (whole entry): T3 sequence (P48546 whole entry)

T1 sequence (P43220 whole entry): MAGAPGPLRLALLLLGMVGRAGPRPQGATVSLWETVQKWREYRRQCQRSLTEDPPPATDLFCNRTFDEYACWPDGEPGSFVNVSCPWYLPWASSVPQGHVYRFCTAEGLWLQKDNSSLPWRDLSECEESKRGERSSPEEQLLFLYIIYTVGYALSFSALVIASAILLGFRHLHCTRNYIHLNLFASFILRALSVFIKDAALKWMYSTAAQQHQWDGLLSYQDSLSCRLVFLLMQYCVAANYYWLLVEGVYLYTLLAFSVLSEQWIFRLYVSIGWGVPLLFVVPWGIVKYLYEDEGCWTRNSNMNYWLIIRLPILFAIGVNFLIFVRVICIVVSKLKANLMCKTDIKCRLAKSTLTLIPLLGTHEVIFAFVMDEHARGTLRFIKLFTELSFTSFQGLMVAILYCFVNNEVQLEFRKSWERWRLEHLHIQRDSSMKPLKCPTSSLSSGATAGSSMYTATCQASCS
T2 sequence (P47871 whole entry): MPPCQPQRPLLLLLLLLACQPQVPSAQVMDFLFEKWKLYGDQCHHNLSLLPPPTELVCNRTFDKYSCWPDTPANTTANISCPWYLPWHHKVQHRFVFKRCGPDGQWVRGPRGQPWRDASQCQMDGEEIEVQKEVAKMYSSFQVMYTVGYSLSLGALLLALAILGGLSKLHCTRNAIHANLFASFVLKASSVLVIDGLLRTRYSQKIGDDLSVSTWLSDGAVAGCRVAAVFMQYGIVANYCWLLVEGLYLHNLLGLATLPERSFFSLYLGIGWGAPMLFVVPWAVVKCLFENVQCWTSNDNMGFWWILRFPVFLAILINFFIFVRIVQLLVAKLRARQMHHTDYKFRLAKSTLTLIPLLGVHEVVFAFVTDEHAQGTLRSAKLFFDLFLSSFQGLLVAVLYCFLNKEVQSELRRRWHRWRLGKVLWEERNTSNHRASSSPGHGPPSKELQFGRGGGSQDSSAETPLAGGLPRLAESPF

Compound	EC50 [1]	Activity ([2]; filed as agonist)	EC50 (Glucagon receptor [3])	Activity (Glucagon receptor [4])	EC50 [5]	Activity [6]	Activity [2]	Activity (Glucagon receptor [4]; filed as agonist)
CC[C@H](C)[C@H](NC(=O)[C@H](CCCCNC(=O)COCCOCCNC(=O)COCCOCCNC(=O)CC[C@H](NC(=O)CCCCCCCCCCCCCCCCC(=O)O)C(=O)O)NC(=O)[C@H](CCC(=O)O)NC(=O)[C@H](CCSC)NC(=O)[C@H](C)NC(=O)[C@H](CCCNC(=N)N)NC(=O)[C@H](CO)NC(=O)[C@H](CC(C)C)NC(=O)[C@H](CC(=O)O)NC(=O)[C@H](CO)NC(=O)[C@@H](NC(=O)[C@H](Cc1ccccc1)NC(=O)[C@@H](NC(=O)CNC(=O)[C@H](CCC(N)=O)NC(=O)C(C)(C)NC(=O)[C@@H](N)Cc1c[nH]cn1)[C@@H](C)O)[C@@H](C)O)C(=O)N[C@@H](C)C(=O)N[C@H](C(=O)N[C@@H](CCCNC(=N)N)C(=O)N[C@@H](CC(C)C)C(=O)N[C@@H](Cc1ccccc1)C(=O)N[C@H](C(=O)N[C@@H](CCC(=O)O)C(=O)N[C@@H](Cc1c[nH]c2ccccc12)C(=O)N[C@@H](CC(C)C)C(=O)N[C@H](C(=O)N[C@@H](CCC(=O)O)C(=O)NCC(=O)NCC(=O)N1CCC[C@H]1C(=O)N[C@@H](CO)C(=O)N[C@@H](CO)C(=O)NCC(=O)N[C@@H](C)C(=O)N1CCC[C@H]1C(=O)N1CCC[C@H]1C(=O)N1CCC[C@H]1C(=O)N[C@@H](CO)C(N)=O)[C@@H](C)CC)[C@@H](C)CC)C(C)C (H-H[Aib]QGTFTSDLSRAMEK([AEEA-AEEA-γGlu-C18 diacid])IAVRLFIEWLIEGGPSSGAPPPS-NH2)	0.03 nM	177%	2.6 nM	4%	0.99 nM	3%		
CC[C@H](C)[C@H](NC(=O)[C@H](CCCCNC(=O)COCCOCCNC(=O)COCCOCCNC(=O)CC[C@H](NC(=O)CCCCCCCCCCCCCCCCCCC(=O)O)C(=O)O)NC(=O)[C@H](CCC(=O)O)NC(=O)[C@H](CCSC)NC(=O)[C@H](C)NC(=O)[C@H](CCCNC(=N)N)NC(=O)[C@H](CO)NC(=O)[C@H](CCSC)NC(=O)[C@H](CC(=O)O)NC(=O)[C@H](CO)NC(=O)[C@@H](NC(=O)[C@H](Cc1ccccc1)NC(=O)[C@@H](NC(=O)CNC(=O)[C@H](CCC(N)=O)NC(=O)C(C)(C)NC(=O)[C@@H](N)Cc1c[nH]cn1)[C@@H](C)O)[C@@H](C)O)C(=O)N[C@@H](C)C(=O)N[C@H](C(=O)N[C@@H](CCCNC(=N)N)C(=O)N[C@@H](CC(C)C)C(=O)N[C@@H](Cc1ccccc1)C(=O)N[C@H](C(=O)N[C@@H](CC(=O)O)C(=O)N[C@@H](Cc1c[nH]c2ccccc12)C(=O)N[C@@H](CC(C)C)C(=O)N[C@H](C(=O)N[C@@H](CCC(=O)O)C(=O)NCC(=O)NCC(=O)N1CCC[C@H]1C(=O)N[C@@H](CO)C(=O)N[C@@H](CO)C(=O)NCC(=O)N[C@@H](C)C(=O)N1CCC[C@H]1C(=O)N1CCC[C@H]1C(=O)N1CCC[C@H]1C(=O)N[C@@H](CO)C(N)=O)[C@@H](C)CC)C(C)C)C(C)C (H-H[Aib]QGTFTSDMSRAMEK([AEEA-AEEA-γGlu-C20 diacid])IAVRLFVDWLIEGGPSSGAPPPS-NH2)	0.02 nM	265%	0.8 nM	12%	0.89 nM	3%		
CC[C@H](C)[C@H](NC(=O)[C@H](CCCCNC(=O)COCCOCCNC(=O)COCCOCCNC(=O)CC[C@H](NC(=O)CCCCCCCCCCCCCCCCC(=O)O)C(=O)O)NC(=O)[C@H](CCC(=O)O)NC(=O)[C@H](CC(C)C)NC(=O)[C@H](C)NC(=O)[C@H](CCCNC(=N)N)NC(=O)[C@H](CO)NC(=O)[C@H](CC(C)C)NC(=O)[C@H](CC(=O)O)NC(=O)[C@H](CO)NC(=O)[C@@H](NC(=O)[C@H](Cc1ccccc1)NC(=O)[C@@H](NC(=O)CNC(=O)[C@H](CCC(N)=O)NC(=O)C(C)(C)NC(=O)[C@@H](N)Cc1c[nH]cn1)[C@@H](C)O)[C@@H](C)O)C(=O)N[C@@H](C)C(=O)N[C@@H](C)C(=O)N[C@@H](CCCNC(=N)N)C(=O)N[C@@H](CC(C)C)C(=O)N[C@@H](Cc1ccccc1)C(=O)N[C@H](C(=O)N[C@@H](CCC(=O)O)C(=O)N[C@@H](Cc1c[nH]c2ccccc12)C(=O)N[C@@H](CC(C)C)C(=O)N[C@H](C(=O)N[C@@H](CCC(=O)O)C(=O)NCC(=O)NCC(=O)N1CCC[C@H]1C(=O)N[C@@H](CO)C(=O)N[C@@H](CO)C(=O)NCC(=O)N[C@@H](C)C(=O)N1CCC[C@H]1C(=O)N1CCC[C@H]1C(=O)N1CCC[C@H]1C(=O)N[C@@H](CO)C(N)=O)[C@@H](C)CC)[C@@H](C)CC (H-H[Aib]QGTFTSDLSRALEK([AEEA-AEEA-γGlu-C18 diacid])IAARLFIEWLIEGGPSSGAPPPS-NH2)	0.022 nM	241%	1.8 nM	5%	0.97 nM	3%		
CSCC[C@H](NC(=O)[C@H](CC(=O)O)NC(=O)[C@H](CO)NC(=O)[C@@H](NC(=O)[C@H](Cc1ccccc1)NC(=O)[C@@H](NC(=O)CNC(=O)[C@H](CCC(N)=O)NC(=O)[C@H](CO)NC(=O)[C@@H](N)Cc1c[nH]cn1)[C@@H](C)O)[C@@H](C)O)C(=O)N[C@@H](CO)C(=O)N[C@@H](CCCCN)C(=O)N[C@@H](Cc1ccc(O)cc1)C(=O)N[C@@H](CC(C)C)C(=O)N[C@@H](CC(=O)O)C(=O)N[C@@H](CO)C(=O)N[C@@H](CCCNC(=N)N)C(=O)N[C@@H](CCCNC(=N)N)C(=O)N[C@@H](C)C(=O)N[C@@H](CCC(N)=O)C(=O)N[C@@H](CC(=O)O)C(=O)N[C@@H](Cc1ccccc1)C(=O)N[C@H](C(=O)N[C@@H](CC(=O)O)C(=O)N[C@@H](Cc1c[nH]c2ccccc12)C(=O)N[C@@H](CC(C)C)C(=O)N[C@@H](CCCCN)C(=O)N[C@@H](CC(N)=O)C(=O)NCC(=O)NCC(=O)N1CCC[C@H]1C(=O)N[C@@H](CO)C(=O)N[C@@H](CO)C(=O)NCC(=O)N[C@@H](C)C(=O)N1CCC[C@H]1C(=O)N1CCC[C@H]1C(=O)N1CCC[C@H]1C(=O)N[C@@H](CO)C(=O)N[C@@H](CCCCNC(=O)COCCOCCNC(=O)COCCOCCNC(=O)CC[C@H](NC(=O)CCCCCCCCCCCCCCCCC(=O)O)C(=O)O)C(N)=O)C(C)C (H-HSQGTFTSDMSKYLDSRRAQDFVDWLKNGGPSSGAPPPSK([AEEA-AEEA-γGlu-C18 diacid])-NH2)	0.034 nM	156%	3.1 nM	3%				
H-HSQGTFTSDMSSYLDSRRAQDFVDWLMNT-NH2	0.96 nM		0.51 nM	18%			6%	
CC[C@H](C)[C@H](NC(=O)[C@H](CCCCNC(=O)COCCOCCNC(=O)COCCOCCNC(=O)CC[C@H](NC(=O)CCCCCCCCCCCCCCCCC(=O)O)C(=O)O)NC(=O)[C@H](CCC(=O)O)NC(=O)[C@H](CCSC)NC(=O)[C@H](C)NC(=O)[C@H](CCCNC(=N)N)NC(=O)[C@H](CO)NC(=O)[C@H](CCSC)NC(=O)[C@H](CC(=O)O)NC(=O)[C@H](CO)NC(=O)[C@@H](NC(=O)[C@H](Cc1ccccc1)NC(=O)[C@@H](NC(=O)CNC(=O)[C@H](CCC(N)=O)NC(=O)C(C)(C)NC(=O)[C@@H](N)Cc1c[nH]cn1)[C@@H](C)O)[C@@H](C)O)C(=O)N[C@@H](C)C(=O)N[C@H](C(=O)N[C@@H](CCCNC(=N)N)C(=O)N[C@@H](CC(C)C)C(=O)N[C@@H](Cc1ccccc1)C(=O)N[C@H](C(=O)N[C@@H](CC(=O)O)C(=O)N[C@@H](Cc1c[nH]c2ccccc12)C(=O)N[C@@H](CC(C)C)C(=O)N[C@H](C(=O)N[C@@H](CCC(=O)O)C(=O)NCC(=O)NCC(=O)N1CCC[C@H]1C(=O)N[C@@H](CO)C(=O)N[C@@H](CO)C(=O)NCC(=O)N[C@@H](C)C(=O)N1CCC[C@H]1C(=O)N1CCC[C@H]1C(=O)N1CCC[C@H]1C(=O)N[C@@H](CO)C(N)=O)[C@@H](C)CC)C(C)C)C(C)C (H-H[Aib]QGTFTSDMSRAMEK([AEEA-AEEA-γGlu-C18 diacid])IAVRLFVDWLIEGGPSSGAPPPS-NH2)	0.019 nM	279%	0.61 nM	15%	0.83 nM	3%		
H-HSQGTFTSDMSKYLDSRRAQDFVDWLKNGGPSSGAPPPS-NH2	0.016 nM	331%	0.052 nM					177%
